The nature of test [1]: Cleavage of supercoiled pGL2 basic DNA assessed as number of strand breaks per plasmid at 150 uM in presence of thiol.
A short description of test [2]: Cleavage of supercoiled pGL2 basic DNA assessed as nicked open circular form DNA level at 150 uM in presence of thiol.
In the next test the test system is HeLa. In words: Cytotoxicity against human HeLa S3 cells. It is filed as functional, cell-based.
The test system of a further test is HepG2. In words: Growth inhibition of human HepG2 cells. It is filed as functional.
Test [3] in a line: Cleavage of supercoiled pGL2 basic DNA assessed as number of strand breaks per plasmid at 150 uM.
Test [4] in a line: Cleavage of thiol-mediated supercoiled pGL2 basic DNA assessed as nicked open circular form DNA level at 150 uM in presence 1 M methanol.
A short description of test [5]: Cleavage of supercoiled pGL2 basic DNA assessed as nicked open circular form DNA level at 150 uM.
The nature of test [6]: Cleavage of thiol-mediated supercoiled pGL2 basic DNA assessed as nicked open circular form DNA level at 150 uM in presence 1 M ethanol.
Test [7] can be described thus: Cleavage of thiol-mediated supercoiled pGL2 basic DNA assessed as nicked open circular form DNA level at 150 uM in presence 10 mM desferal.
A short description of test [8]: Cleavage of thiol-mediated supercoiled pGL2 basic DNA assessed as nicked open circular form DNA level at 150 uM in presence […].
Test [9] is described as follows: Cleavage of thiol-mediated supercoiled pGL2 basic DNA assessed as nicked open circular form DNA level at 150 uM in presence 100 ug/ml catalase.
Test [10] can be described thus: Cleavage of thiol-mediated supercoiled pGL2 basic DNA assessed as nicked open circular form DNA level at 150 uM in presence 100 ug/ml superoxide dismutase.
Test [11] is described as follows: Cleavage of thiol-mediated supercoiled pGL2 basic DNA assessed as nicked open circular form DNA level at 150 uM in presence 50 ug/ml superoxide dismutase.
Test [12] is described as follows: Cleavage of thiol-mediated supercoiled pGL2 basic DNA assessed as number of strand breaks per plasmid at 150 uM in presence of 1 M methanol.
Test [13] in a line: Cleavage of thiol-mediated supercoiled pGL2 basic DNA assessed as number of strand breaks per plasmid at 150 uM in presence of 1 M ethanol.
A short description of test [14]: Cleavage of thiol-mediated supercoiled pGL2 basic DNA assessed as number of strand breaks per plasmid at 150 uM in presence of 10 mM desferal.
A short description of test [15]: Cleavage of thiol-mediated supercoiled pGL2 basic DNA assessed as number of strand breaks per plasmid at 150 uM in presence of 10 mM diethylenetriaminepentaacetic acid.
Test [16] in a line: Cleavage of thiol-mediated supercoiled pGL2 basic DNA assessed as number of strand breaks per plasmid at 150 uM in presence of 1 M DMSO.
A short description of test [17]: Cleavage of thiol-mediated supercoiled pGL2 basic DNA assessed as number of strand breaks per plasmid at 150 uM in presence of 100 ug/ml catalase.
A short description of test [18]: Cleavage of thiol-mediated supercoiled pGL2 basic DNA assessed as nicked open circular form DNA level at 150 uM in presence 10 mM diethylenetriaminepentaacetic acid.

For `O=c1ssc2ccccc12`, the figures for the Activity in [1] and in test [2] were 0.4 and 33.1%, respectively.

`C/C1=C\[C@@H](O)C(=O)/C=C/C=C\c2csc(n2)[C@@H](C)NC(=O)C[C@@]2(CC1)[S+]([O-])SC(=O)[C@]2(C)O` (stereo partly specified) [LEINAMYCIN] came in with an IC50 in the test with HeLa of 27 nM.

`CC1(O)C(=O)S[S+]([O-])C1(C)C` (stereo unspecified): the Activity in [1] came to 2.58; in test [2] it was 92.5%.

In turn, `C/C1=C\[C@@H](O)C(=O)/C=C/C=C\c2csc(n2)[C@@H](C)NC(=O)C[C@@]2(CC1)SSC(=O)[C@]2(C)O` came in with a half-inhibitory concentration (IC50) in the test on HeLa of 4000 nM. This lies in the single-digit micromolar range.

As to `N[C@@H](Cc1ccc(N(CCCl)CCCl)cc1)C(=O)O` [MELPHALAN], the GI50 with HepG2 was determined as 17000 nM. This lies in the double-digit micromolar range.

BLEOMYCIN showed a GI50 in the test on HepG2 of 1000 nM. This GI50 lies about 17-fold lower than the previous one.

For `CC1(C)SSC(=O)C1(C)O` (stereo unspecified), the Activity in test [3] amounted to 0.2; in test [1] it was 1.32; in test [4] it was 27.5%; in test [5], 18.2%; in [2] it was 73.1%; in test [6], 19%. The Activity in [7] came to 25.9%; in test [8] it was 15.5%; in test [9] it was 19.3%; in test [10] it was 100%; in [11] it was 100%; in test [12], 0.32. The Activity was found to be 0.21 in test [13]; 0.3 in test [14]; 0.21 in test [15]; 0.17 in test [16]; 0.21 in [17]; 19% in test [18].

These data come from ChEMBL document CHEMBL1145553, “Possible chemical mechanisms underlying the antitumor activity of S-deoxyleinamycin” (Bioorg Med Chem Lett, 2008).
